Assay results published in patent publication US20230346773A1, “USE OF PCSK9 INHIBITOR IN PREPARATION OF PRODUCT FOR TREATING MULTIPLE DISEASES” (priority 2020, published 2023).
Marks after values point to notes of the source that are not given here.

B1: Evolocumab (antibody, chains of the INN, looked up, V domains shown)
VH: EVQLVQSGAEVKKPGASVKVSCKASGYTLTSYGISWVRQAPGQGLEWMGWVSFYNGNTNYAQKLQGRGTMTTDPSTSTAYMELRSLRSDDTAVYYCARGYGMDVWGQGTTVTVSS
VL: ESALTQPASVSGSPGQSITISCTGTSSDVGGYNSVSWYQQHPGKAPKLMIYEVSNRPSGVSNRFSGSKSGNTASLTISGLQAEDEADYYCNSYTSTSMVFGGGTKLTVL
notes: PCSK9 monoclonal antibody jointly developed by Amgen and Astellas, trade name Repatha

How the values were obtained:
[1] = tested on: hair follicles / hair growth in depilated C57BL/6 mice; assay: Hair growth in C57BL/6 mice after rosin/paraffin depilation; assay type: in vivo; conditions: for Time from hair growth to the same length as the hair in the non-experimental area / Time to grow new hair / Time to match the length of hair in the non-experimental area: back hair removal area of mice; for Black skin duration / Skin black-turning time / Skin grayish-black-turning time: hair removal area on the back of mice; for Skin black-turning time / Skin grayish-black-turning time: after hair removal
Method: SPF grade C57BL/6 mice were selected and numbered according to their weight. They were randomly divided into compound group 1 (skin applied with 2% R-IMPP solution), compound group 2 (skin applied with 2% PF 06446846 solution), and compound group 3 (skin applied with 2% SBC-115076 solution), compound group 4 (skin applied with 2% SBC-110736 solution), monoclonal antibody group 1 (PCSK9subcutaneous injection monoclonal antibody ab81041, 5 mg/kg·d), monoclonal antibody group 2 (Subcutaneous injection of Evolocumab, 5 mg/kg·d), monoclonal antibody group 3 (subcutaneous injection of Alirocumab, 5 mg/kg·d), PCSK9 RNA interference group-1 (skin applied with 2% PCSK9 small interfering RNA-1 solution), PCSK9 RNA interference Group-2 (skin applied with 2% PCSK9 small interfering RNA-2 solution), PCSK9 RNA interference group-3 (skin applied with 2% PCSK9 small interfering RNA-3 solution), polypeptide group (subcutaneous injection of Abcam company ab32727, 3 mg/kg·d), positive control group (skin applied with 2% minoxidil solution), negative control group (skin applied with 60% ethanol), and model control group (skin applied with 60% ethanol), 10 mice in each group, half male and half female. After the mice were anesthetized with ether, they were coated on the back with a mixture of rosin and paraffin (1:1) after hot melting, and then peeled off after it solidified and hardened. The back of the mouse was cleaned to be hairless and without injuries. The depilation area was about 3 cm×4 cm. From the 2nd day after depilation, the corresponding drugs were applied to the hair removal area, twice a day, 0.5 mL per animal each time, and subcutaneously injected once a week.
From the second day after application, observe the daily color change of the skin on the back of the mice to determine the growth state of the hair follicles and visually observe the hair growth in the depilation area, and score the new hair growth in the depilation area once a day. Five mice in each group were reserved for 40 days of visual observation, and the growth of back hair was recorded.
On the 17th day, five mice in each group were sacrificed by cervical dislocation. The samples were taken from the same part of the back parallel to the spine, fixed with 10% formaldehyde, dehydrated, embedded in paraffin, sectioned, stained with HE, and sealed with neutral gum. Then the histology of hair follicles was observed under light microscope, and morphological staging of hair follicles was performed. According to the international hair cycle scoring method, the hair follicles were scored as follows: 100 points for growth stage VI, 200 points for early regression, 300 points for middle regression, and 400 points for late regression. 50 hair follicles were randomly selected from each mouse, the cycle of the hair follicles in each group was determined, and the average hair cycle score and the percentage of hair follicles in the growth phase VI, early regression, middle regression, and late regression were calculated.

[2] = tested on: androgenetic alopecia (SA) rat model; assay: Androgenetic alopecia (SA) rat model induced by testosterone propionate; assay type: in vivo, Wistar rats; conditions: for Skin hair follicles and sebaceous glands: number of rats graded ++ / Skin hair follicles and sebaceous glands: number of rats graded ± / Skin hair follicles and sebaceous glands: number of rats graded + / Skin hair follicles and sebaceous glands: number of rats graded − / Skin hair follicles and sebaceous glands: number of rats graded +++: 10 rats, after 60 days; for Skin hair follicles and sebaceous glands: number of rats graded ++: few follicles with cystic degeneration, sebaceous glands mild hyperplasia and hypertrophy; for Skin hair follicles and sebaceous glands: number of rats graded ±: no hyperplasia in the dermis, limited lesions of hair follicles and sebaceous glands, no subcutaneous inflammation; for Skin hair follicles and sebaceous glands: number of rats graded +: no obvious hyperplasia in dermis, obviously cystic follicles, no inflammation; for Skin hair follicles and sebaceous glands: number of rats graded −: normal skin dermal tissue cells, subcutaneous hair follicles and sebaceous glands; for Skin hair follicles and sebaceous glands: number of rats graded +++: segmental hyperplasia, degenerated follicles, hyperplasia of sebaceous glands, mild inflammatory hyperplasia; for 15 d hair length / 30 d hair length / 45 d hair length / 60 d hair length: rats; for 15 d hair length: 15 days after administration; for 30 d hair length: 30 days after administration; for 45 d hair length: 45 days after administration; for 60 d hair length: 60 days after administration
Method: SPF grade Wistar rats were selected and randomly divided into compound group 1 (skin applied with 5% R-IMPP solution), compound group 2 (skin applied with 5% PF 06446846 solution), and compound group 3 (skin applied with 5% SBC-115076 solution), compound group 4 (skin applied with 5% SBC-110736 solution), monoclonal antibody group 1 (subcutaneous injection of PCSK9 monoclonal antibody ab84041, 5 mg/kg·d), monoclonal antibody group 2 (subcutaneous injection of Evolocumab, 5 mg/kg·d), monoclonal antibody group 3 (subcutaneous injection of Alirocumab, 5 mg/kg·d), PCSK9 RNAi inhibitor group-1 (skin applied with 5% PCSK9 small interfering RNA-1 solution), PCSK9 RNAi inhibitor group-2 (skin applied with 5% PCSK9 small interfering RNA-2 solution), PCSK9 RNAi inhibitor group-3 (skin applied with 5% PCSK9 small interfering RNA-3 solution), and polypeptide group (subcutaneous injection of Abcam company ab32727, 3 mg/kg·d), positive control group (skin smeared with 5% minoxidil tincture), negative control group (smeared with 75% ethanol), model control group (smeared with 75% ethanol), 10 rats in each group, half male and half female.
Before the experiment, each rat selected an area of 4 cm×5 cm on the back to remove the hair as the observation area. Except for the negative control group, the rats were subcutaneously injected with testosterone propionate injection [[…]] at the back of the neck, once a day for 60 consecutive days to establish the SA model. […] At the same time, the rats in the corresponding drug group were smeared or subcutaneously injected on the skin of the observation area of the rats in the drug group, smeared 1 ml/(per time), twice a day, with an interval of 8 hours, and administered by subcutaneous injection, once a day. The negative control group and the model control group were smeared with excipient (75% ethanol solution), 1 mL one rat per time, twice a day, for 60 consecutive days.
10 hairs were extracted from the observation area on the back of each rat every 15 days after administration, and the hair length was measured with a vernier caliper. After 60 days of administration, the skin of the experimental observation area was taken for routine tissue dehydration, paraffin embedding, HE staining, and light microscopy to observe the histopathological changes of the rat skin hair follicles and sebaceous glands. Semi-quantitative analysis was carried out in each group. The grading standards are as follows: normal skin dermal tissue cells, subcutaneous hair follicles, and sebaceous glands were marked as “one”; no hyperplasia in the dermis, limited lesions of hair follicles and sebaceous glands, and no subcutaneous inflammation, marked as “±”; no obvious hyperplasia found in the dermis, obviously cystic follicles, no obvious hyperplasia found in the sebaceous glands, and no inflammation is recorded as “+”; segmental hyperplasia of skin and dermis was not obvious, a small number of hair follicles had cystic degeneration, and sebaceous glands had mild hyperplasia and hypertrophy. No obvious inflammation under the skin was recorded as “++”; the skin and dermis tissue cells had segmental hyperplasia of different degrees, some follicles degenerated, the size of the hair follicles was uneven, and there were no cells in the periphery. There was hyperplasia of sebaceous glands, and there were few nuclei in the hyperplasia glands. Individual rats had mild inflammatory hyperplasia under the skin, which was marked as “+++”.

Row | Molecule | Time from hair growth to the same length as the hair in the non-experimental area [1] | Time to grow new hair [1] | Time to match the length of hair in the non-experimental area [1] | Black skin duration [1] | Skin black-turning time [1] | Skin grayish-black-turning time [1] | Skin hair follicles and sebaceous glands: number of rats graded ++ [2] | Skin hair follicles and sebaceous glands: number of rats graded ± [2] | Skin hair follicles and sebaceous glands: number of rats graded + [2] | Skin hair follicles and sebaceous glands: number of rats graded − [2] | Skin hair follicles and sebaceous glands: number of rats graded +++ [2] | 15 d hair length [2] | 30 d hair length [2] | 45 d hair length [2] | 60 d hair length [2]
1 | Inclisran [RNA interference group 2] | 14.12* days | 6.92* days | 20.16* days | 11.87* days | 5.66* days | 18.23* days | 1 | 4 | 4 | 1 | 0 | 8.3* mm | 9.1* mm | 14.5* mm | 16.9* mm
2 | B1 | 9.89* days | 5.78* days | 16.68* days | 10.21* days | 5.23* days | 16.83* days | 0 | 4 | 3 | 3 | 0 | 9.7* mm | 10.8* mm | 15.8* mm | 19.5* mm
